# Data from PMC4007060 (Journal of neuroimmune pharmacology : the official journal …, 2010).
# “Also recorded” adds a separate entry of the source. Where two headings read alike, the source gives them in different places.
# Experiments:
# [1] = tested on: mouse spleen cells, antibody response to sheep red blood cells; conditions: morphine positive control; ref Rahim et al, 2001; cited from earlier work
# ORL-1 [2] = conditions: in vivo; ref Chen et al, 2001; cited from earlier work
# ORL-1 [3] = conditions: in vitro; ref Knoflach et al, 1996; Reinscheid et al, 1995; cited from earlier work
# human monocytes = conditions: 10^−6 M naloxone; ref Trombella et al, 2005; cited from earlier work
# mouse spleen cells [4] = conditions: 2 hrs pretreatment, same PFC assay; ref Eisenstein et al, 1995; cited from earlier work
# C-1 A-APA = test: Dot-blot cross-reactivity, C-1 A-APA; type: binding, rabbit; conditions: membrane-spotted peptides
# [5] = tested on: C-4 A-APA (affinity-purified rabbit antiserum to N/OFQ); test: Solid-phase RIA, displacement of; type: binding; conditions: for cross-reactivity in RIA: competitive peptide 1 × 10^−6 M to 1.5 × 10^−12 M
# [6] = tested on: C-1 A-APA (affinity-purified rabbit antiserum to N/OFQ); test: Solid-phase RIA, displacement of; type: binding; conditions: for cross-reactivity in RIA: competitive peptide 1 × 10^−6 M to 1.5 × 10^−12 M
# C-4 A-APA = test: Dot-blot cross-reactivity, C-4 A-APA; type: binding, rabbit; conditions: membrane-spotted peptides
# [7] = tested on: human monocytes and monocyte-like cell lines (CCL2/MCP-1, CCL5/RANTES); conditions: CCL2/MCP-1 and CCL5/RANTES; ref Kaminsky and Rogers, 2008; cited from earlier work
# ORL-1 receptor = conditions: cited from earlier work
# human T cells = conditions: cited from earlier work
# mouse spleen cells [8] = test: Primary in vitro plaque-forming cell; type: cell-based, mouse (C3HeB/FeJ); conditions: primary PFC assay
# [9] = tested on: mouse spleen (TNF-α and IFN-γ mRNA); conditions: in vivo; cited from earlier work
# [10] = tested on: Con A activated rat splenocytes; conditions: ref Miller and Fulford, 2007, cited from earlier work
# [11] = tested on: mouse spleen cells, antibody response to sheep red blood cells; conditions: s.c. Alzet pump, 48 hr
# kappa opioid receptor = conditions: ref Mollereau et al, 1994; Pan et al, 1995; cited from earlier work
# astrocytes = conditions: peripheral administration of an inflammatory stimulus; ref Fu et al, 2007; cited from earlier work
# mu opioid receptor = conditions: ref Mollereau et al, 1994; Pan et al, 1995; cited from earlier work
# delta opioid receptor = conditions: ref Mollereau et al, 1994; Pan et al, 1995; cited from earlier work
# astrocyte cultures = conditions: lipopolysaccharide in vitro; ref Fu et al, 2007; cited from earlier work
compound,measurement,setting,value
CN1CC[C@]23c4c5ccc(O)c4O[C@H]2[C@@H](O)C=C[C@H]3[C@H]1C5 [morphine],dose producing maximal immunosuppression,[1],0.5 mg/kg/day
C=CCN1CC[C@]23c4c5ccc(O)c4O[C@H]2C(=O)CC[C@@]3(O)[C@H]1C5 [naloxone],naloxone sensitivity of ORL-1 activity,ORL-1 [2],naloxone insensitive
same,naloxone sensitivity of ORL-1 activity,ORL-1 [3],naloxone insensitive
same,effect of naloxone on chemotaxis induced by the peptide,human monocytes,did not block human monocyte chemotaxis
same,block of immunosuppressive effect of morphine and U50488,mouse spleen cells [4],"completely blocked the immunosuppressive effect of morphine and of the kappa agonist, U50488"
BAM-18,dot-blot reactivity,C-1 A-APA,not to classical opioid
same,cross-reactivity in RIA,[5],did not show significant cross-reactivity; also recorded: No significant cross-reactivities were detected
same,cross-reactivity in RIA,[6],no significant cross-reactivity; also recorded: No significant cross-reactivities were detected
same,dot-blot reactivity,C-4 A-APA,not to classical opioid
Dynorphin A1-17,cross-reactivity in RIA,[5],did not show significant cross-reactivity
same,cross-reactivity in RIA,[5]; listed as Dynorphin A1-17,No significant cross-reactivities were detected
same,cross-reactivity in RIA,[6],no significant cross-reactivity
same,cross-reactivity in RIA,[6]; listed as Dynorphin A1-17,No significant cross-reactivities were detected
"Tyr-Gly-Gly-Gly-Met [Met-enkephalin, Met-Enkephalin]",dot-blot reactivity,C-1 A-APA,not to classical opioid
same,dot-blot reactivity,C-4 A-APA,not to classical opioid
"Tyr-Gly-Gly-Phe-Leu [Leu-enkephalin, Leu-Enkephalin]",dot-blot reactivity,C-1 A-APA,not to classical opioid
same,cross-reactivity in RIA,[5],did not show significant cross-reactivity
same,cross-reactivity in RIA,[5]; listed as Leu-Enkephalin,No significant cross-reactivities were detected
same,cross-reactivity in RIA,[6],no significant cross-reactivity
same,cross-reactivity in RIA,[6]; listed as Leu-Enkephalin,No significant cross-reactivities were detected
same,dot-blot reactivity,C-4 A-APA,not to classical opioid
nociceptin/orphanin FQ [N/OFQ],dot-blot reactivity,C-1 A-APA,showed reactivity to the three nociceptin peptides
same,IC20,"[5]; read-out: smallest measurable displacement, IC20, solid-phase RIA, C-4 A-APA",0.062 nM
same,IC80,"[5]; solid-phase RIA, C-4 A-APA",0.71 nM
same,chemokine production,[7],suppress the production of chemokine proteins
same,forskolin-induced cAMP accumulation,ORL-1 receptor,inhibition of forskolin-induced cAMP accumulation
same,CD28 expression,human T cells,up-regulated expression of the co-stimulatory molecule CD28
same,CTLA-4 expression,human T cells,upregulate CTLA-4
same,PGE2 induction,human T cells,induced PGE2
same,proliferation,human T cells,increased proliferation
same,suppression of antibody formation,mouse spleen cells [8],suppressed antibody formation to sheep red blood cells; also recorded: suppresses both the secondary and primary plaque-forming cell assay
same,mRNA for TNF-α and IFN-γ in spleens,[9],increased levels of mRNA
same,inhibition of proliferation,[10]; Con A activated rat splenocytes,inhibit the proliferation
same,inhibition of IL-2 production,[10]; in vitro,"inhibit the proliferation of Con A activated rat splenocytes, as well as the production of IL-2"
same,IC80,"[6]; solid-phase RIA, C-1 A-APA",2.9 nM
same,dose of maximal immunosuppression,[11],0.05 mg/kg/day
same,dot-blot reactivity,C-4 A-APA,showed reactivity to the three nociceptin peptides
same,binding,kappa opioid receptor,does not bind
same,"mRNA for TNF-α, IL-1β, and IL-6",astrocytes,decrease expression of mRNA
same,binding,mu opioid receptor,does not bind
same,binding,delta opioid receptor,does not bind
same,"mRNA for TNF-α, IL-1β, and IL-6",astrocyte cultures,decrease expression of mRNA
